Laboratory results from US8981149B2, “Compounds modulating the hedgehog protein signaling pathway, marked forms thereof, and applications” (Centre National De La Recherche Scientifique, priority 2011, dated 2015).
Values joined by “and” are separate entries in the source; they are usually repeats but may differ in a detail not shown here. Equal values may be shown once. Where a name gives a salt, the structure may show the parent alone. Read-outs that look alike come from different tables or passages of the source.

Key:
[1] = system: C3H10T1/2 cells; test: Differentiation of C3H10T1/2 cells induced by SAG, alkaline phosphatase (AP) activity; assay type: cell-based, mouse
Description: The test compounds of formula (I) were dissolved in dimethylsulfoxide up to a concentration of 10 mM, then stored at a temperature of −20° C. until used.
The line of C3H10T1/2 pluripotent fibroblast cells (ATCC) was cultured in the conditions recommended by the ATCC. These cells were activated using 0.1 μM of SAG according to the methods described by Chen et al., Proc. Natl. Acad. Sci. USA, 2002, 99, 14071 and Frank-Kamenetsky et al., J. Biol., 2002, 1, 10.
Activation by SAG causes differentiation of the cell line and allows it to express alkaline phosphatase (AP). It was thus possible to measure the activity of the Hedgehog protein signalling pathway via measurement of the alkaline phosphatase (AP) activity.
The C3H10T1/2 cells were seeded on 96-well plates at a density of 5.10^3 cells per well, 24 hours before adding the test compounds at a concentration varying from 1 nM to 30 μM and in the presence of 0.1 μM of SAG, using DMEM (Dulbecco's Modified Eagle's Medium) with 10% fetal calf serum as culture medium. The tests were carried out in quadruplicate. The plates were then incubated for 5 to 6 days at a temperature of 37° C. under 5% CO2 atmosphere. The cells were then washed in cold phosphate buffer (“Phosphate Buffer Serum”: PBS), then lysed by sonication at 4° C. in 50 μL of a solution containing 0.9% of NaCl and 0.2% of Triton X-100.
Measurement of the alkaline phosphatase (AP) activity in the lysates thus obtained was then performed according to the method described by Pepinsky et al. (J. Biol. Chem., 1998, 273, 14037). After adding 100 μL of reaction buffer (200 mM Tris-HCl; pH 10.5; 0.4 M of 2-amino-2-methylpropanol and 8 mM of MgCl2) and 50 μL of substrate (4 mM of p-nitrophenyl disodium phosphate), the lysates were incubated at 37° C. for 30-60 min, then the optical density was read at a wavelength of 415 nm.

[2] = target: T1, human Smoothened receptor (Homo sapiens, UniProt Q99835); test: Inhibition of binding of 3H-(7d) to membranes of HEK-hSmo cells; conditions: for Ki: read-out: Ki ± SEM, binding of compound 3H-(7d)
T1 construct: expressed in transfected cells
T1 sequence (Q99835 28-787): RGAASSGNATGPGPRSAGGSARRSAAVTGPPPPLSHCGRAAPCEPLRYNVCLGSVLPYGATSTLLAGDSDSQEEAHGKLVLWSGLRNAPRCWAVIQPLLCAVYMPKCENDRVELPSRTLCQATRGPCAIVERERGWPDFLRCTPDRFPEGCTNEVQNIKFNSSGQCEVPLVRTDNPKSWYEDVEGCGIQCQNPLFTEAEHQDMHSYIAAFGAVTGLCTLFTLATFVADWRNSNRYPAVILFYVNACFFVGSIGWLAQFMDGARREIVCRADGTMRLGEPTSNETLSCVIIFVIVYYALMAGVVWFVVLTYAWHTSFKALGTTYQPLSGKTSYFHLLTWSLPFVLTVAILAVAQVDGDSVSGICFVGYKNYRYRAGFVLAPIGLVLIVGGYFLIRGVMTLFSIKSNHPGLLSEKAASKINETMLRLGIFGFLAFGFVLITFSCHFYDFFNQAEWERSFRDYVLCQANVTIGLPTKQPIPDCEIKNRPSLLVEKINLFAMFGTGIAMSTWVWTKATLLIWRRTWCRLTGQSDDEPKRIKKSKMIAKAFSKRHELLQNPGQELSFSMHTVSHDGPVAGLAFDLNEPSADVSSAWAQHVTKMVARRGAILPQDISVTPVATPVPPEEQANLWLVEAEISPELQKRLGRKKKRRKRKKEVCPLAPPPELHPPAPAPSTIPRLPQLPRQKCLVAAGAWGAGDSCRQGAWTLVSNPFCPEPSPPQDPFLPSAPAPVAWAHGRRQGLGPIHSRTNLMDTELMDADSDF
Description: The binding test is carried out on membranes enriched with Smoothened receptor. Cells of the HEK-hSmo line were used for preparing these membranes. The cells are washed and recovered in iced PBS. After centrifugation at 100 g for 7 minutes at 4° C., the pellet is taken up in 10 times its volume of an iced buffer A (50 mM HEPES, pH 7.4, 1 mM EDTA) with addition of 10 μl of a cocktail of protease inhibitors (PEAK, Sigma) per ml of buffer, then it is homogenized using a Polytron grinding mill. After centrifugation at 500 g for 30 minutes at 4° C., which makes it possible to remove the nuclei from the cells, the supernatant is centrifuged again at 48 000 g for 45 min at 4° C. The pellet is taken up in 2 ml of buffer A with PEAK added, then the suspension is homogenized using a glass conical grinding mill and is passed through a 23 G needle. Finally, aliquots are placed in Eppendorf tubes and stored at −80° C. The concentration of total protein in the preparation is determined by Lowry's method using BSA for preparing the standard range.
The membranes are resuspended in a buffer (50 mM HEPES and 3 mM MgCl2) containing 0.2% of BSA. The tests of binding of ^3H-(7d) are carried out in polypropylene tubes. The membranes (2 μg of proteins) are incubated with the ^3H-(7d) in the presence or absence of the cold test compounds for 3 hours at 37° C. in a final volume of 400 μl. Incubation is stopped by immersing the tubes in iced water followed by rapid filtration (Brandel) through a glass fiber filtration membrane (GF/C) treated beforehand with 0.3% of polyethylenimine, which can reduce the nonspecific binding of the ^3H-(7d) to the filtration membrane. The radioactivity retained on the filter is measured in the presence of 3 ml of scintillating agent in a liquid scintillation counter.
In this experiment, the cold ligand competes with the radioactive ligand for binding to the receptor, and the affinity (Ki) of each cold ligand for the receptor can be analyzed based on the IC50 values deduced from the inhibition curves.

[3] = system: PCGs of rat cerebellum; test: Proliferation of granule cell precursors (PCGs) of rat cerebellum induced by SAG, 3H-thymidine incorporation; assay type: cell-based; conditions: proliferation induced by SAG (0.01 μM), 3H-thymidine incorporation, read-out: IC50 ± SEM, PCGs of rat cerebellum (3)
Description: The granule cell precursors (GCP) are isolated from cerebellums of rats (IFFA-CREDO, France), 8 days after birth (P8). The cerebellums are taken, cut into small pieces, placed in Krebs-Ringer buffer (120 mM NaCl, 5 mM KCl, 1 mM KH2PO4, 25 mM NaHCO3, 15 mM glucose, 0.04 mM phenol red) and incubated for 15 minutes at room temperature in a dissociation buffer composed of Krebs-Ringer with addition of 250 mg/ml of trypsin (Sigma, France). Enzymatic dissociation is stopped by adding an equal volume of Krebs-Ringer buffer containing 250 mg/ml of a trypsin inhibitor and 80 mg/ml of DNase (Sigma, France). The tissue is centrifuged at 100 g for 10 seconds and the pellet obtained is resuspended and triturated using Pasteur pipettes of decreasing diameter to obtain a suspension of isolated cells. This suspension is centrifuged at 200 g for 5 minutes and the pellet obtained is resuspended in Neurobasal medium supplemented with 1 mM of pyruvate, 2 mM L-glutamine, penicillin/streptomycin and 1% of supplement N2, 60 mg/ml N-acetyl cysteine and […] of bovine serum albumin (BSA, Sigma, France).
The cerebellar GCPs obtained are transferred to 96-well plates treated beforehand with poly-D-lysine at a density of 2.10^5 cells/well. SAG in the presence or absence of the other test compounds is added immediately. 12 hours before the end of culture, tritiated thymidine (^3H-thymidine) is added. The cells are aspirated and recovered on a glass fiber filter (GF/C) using an automated cell collector (Brandel, USA). The amount of radioactivity incorporated by the cells was quantified in the presence of a scintillating agent in a liquid scintillation counter (Wallac, USA).
The cerebellar PCGs proliferate in response to activation of the Shh signalling pathway, a response that can be inhibited by the Smo antagonists (Rohatgi et al., 2009, Proc. Natl. Acad. Sci. USA 106: 3196-201). We therefore analyzed the capacity of compound (7d) for inhibiting the proliferation of the PCGs of rat cerebellum in primary culture by measuring the incorporation of tritiated thymidine, a marker of DNA newly synthesized during the proliferation process.

[4] = Binding of 3H-(7d) to membranes of HEK293 cells not transfected with human Smo cDNA; conditions: 1 μM
[5] = target: T2, human Smo receptor (Homo sapiens, UniProt Q99835); test: Competition with bodipy-cyclopamine (BC) binding in HEK-hSmo cells; conditions: for IC50: bodipy-cyclopamine (5 nM), HEK-hSmo cells, read-out: IC50 ± SEM, BC binding (4)
T2 construct: expressed in transfected cells
T2 sequence (Q99835 28-787): as above
Description: Cells of the HEK293 line stably transfected with the human Smo receptor are used. The experiment was conducted according to the protocol described in Roudaut et al., Mol. Pharmacol. 79: 453-460, 2011.
At the end of the incubation, the cells are fixed and stained with DAPI, a fluorescent molecule with high affinity for DNA which makes it possible to visualize the nuclei in blue in fluorescence microscopy.

[6] = system: cells; conditions: Borzillo et al., 2005; cited from earlier work
[7] = Mus musculus, C3H 10T1/2, after induction by SAG at 0.1 μM, read-out: IC50, inhibition of alkaline phosphatase (AP) activity, differentiation of C3H10T1/2 cells
[8] = Mus musculus, C3H 10T1/2, AP activity, differentiation induced by SAG (0.1 μM), read-out: IC50 ± SEM, C3H10T1/2 cells (2)
[9] = 0.35 nM 3H-(7d), HEK-hSmo membranes, 3 hours at 37° C., read-out: IC50 ± SEM, binding of compound 3H-(7d)
[10] = calculated from IC50, HEK-hSmo membranes
[11] = AP activity, differentiation induced by SAG (0.1 μM), read-out: IC50 ± SEM, C3H10T1/2 cells (2)
[12] = after induction by SAG at 0.1 μM, read-out: IC50, inhibition of alkaline phosphatase (AP) activity, differentiation of C3H10T1/2 cells

COc1cc(C(=O)NC(=N)Nc2ccc(C)c(NC(=O)c3ccc(C(=O)c4ccccc4)cc3)c2)cc(OC)c1OC [Compound 7a, N—(N-(3-(4-benzoylbenzamido)-4-methylphenyl)carbamimidoyl)-3,4,5-trimethoxybenzamide hydrochloride]
IC50 [1, 7]: 0.032 ± 0.011 µM

COc1cc(C(=O)NC(=N)Nc2ccc(C)c(NC(=O)c3ccc4c(c3)Cc3ccccc3-4)c2)cc(OC)c1OC [Compound 7b, N-(2-methyl-5-(3-(3,4,5-trimethoxybenzoyl)guanidino)phenyl)-9H-fluorene-2-carboxamide hydrochloride]
IC50 [1, 7]: 0.028 ± 0.003 µM

COc1cc(C(=O)NC(=N)Nc2ccc(C)c(NC(=O)c3ccc(C/C=C/c4ccccc4)cc3)c2)cc(OC)c1OC [Compound 7e, (E)-N—(N-(3-(4-cinnamylbenzamido)-4-methylphenyl)carbamimidoyl)-3,4,5-trimethoxybenzamide hydrochloride]
IC50 [1, 7]: 0.057 ± 0.002 µM

COc1cc(C(=O)NC(=N)Nc2ccc(C)c(NC(=O)c3ccc(Cc4ccccc4)cc3)c2)cc(OC)c1OC [Compound 7g, N—(N-(3-(4-benzylbenzamido)-4-methylphenyl)carbamimidoyl)-3,4,5-trimethoxybenzamide hydrochloride]
IC50 [1, 7]: 0.22 ± 0.025 µM

COc1cc(C(=O)NC(=N)Nc2ccc(C)c(NC(=O)c3ccc(OCc4ccccc4)cc3)c2)cc(OC)c1OC [Compound 7h, N—(N-(3-(4-(benzyloxy)benzamido)-4-methylphenyl)carbamimidoyl)-3,4,5-trimethoxybenzamide hydrochloride]
IC50 [1, 7]: 0.072 ± 0.015 µM

COc1cccc(CN(C(=O)CC(C)(C)C)[C@H]2C[C@@H](C(=O)N3CCNCC3)N(Cc3ccc4c(c3)OCO4)C2)c1 [Cur61414]
Inhibition of the binding of compound 3H-(7d), in words ([2]; HEK-hSmo membranes): micromolar order

CS(=O)(=O)c1ccc(C(=O)Nc2ccc(Cl)c(-c3ccccn3)c2)c(Cl)c1 [GDC-0449]
IC50 ([3]; Rattus norvegicus): 0.008 ± 0.001 µM | Effect on the binding of compound 3H-(7d) to non-transfected membranes [4]: no effect | IC50 [1, 8]: 0.01 ± 0.003 µM | IC50 [1, 7]: 0.01 ± 0.001 µM | Inhibition of the specific binding of compound 3H-(7d) at a single concentration ([2]; 1 μM): completely inhibits

Cc1c(C(=O)Nc2ccc(N3C[C@@H](C)O[C@@H](C)C3)nc2)cccc1-c1ccc(OC(F)(F)F)cc1 [LDE225]
IC50 [5]: 0.008 ± 0.002 µM | IC50 ([3]; Rattus norvegicus): 0.003 µM | IC50 [1, 8]: 0.022 ± 0.003 µM | IC50 [1, 7]: 0.022 ± 0.003 µM | IC50 [2, 9]: 0.004 µM and 0.0042 µM | Ki [2, 10]: 0.0019 ± 0.0003 µM

COc1cc(C(=O)NC(=S)Nc2cccc(NC(=O)c3ccccc3)c2)cc(OC)c1OC [MRT-10]
IC50 ([1]; SAG 0.1 μM, Mean ± SEM, n ≧ 3, read-out: IC50, differentiation of C3H10T1/2 cells): 0.9 ± 0.2 µM

COc1cc(C(=O)NC(N)=Nc2ccc(C)c(NC(=O)c3ccc(-c4ccccc4)cc3)c2)cc(OC)c1OC [MRT-83]
Block of the binding of BC to HEK-hSmo cells, in words ([5]; BC 5 nM, 2 hours): very similar and high | IC50 [5]: 0.005 ± 0.003 µM | IC50 [3]: 0.006 µM | IC50 [1, 11]: 0.011 ± 0.003 µM | IC50 [1, 12]: 0.011 ± 0.003 µM | IC50 [2, 9]: 0.011 µM and 0.0105 µM | Ki [2, 10]: 0.0048 ± 0.0012 µM

c1ccc2c(Oc3nc(Nc4ccc(N5CCOCC5)cc4)c4ncn(C5CCCCC5)c4n3)cccc2c1 [Purmorphamine, purmorphamine]
IC50 ± SEM, binding of compound 3H-(7d) ([2]; 0.35 nM 3H-(7d), HEK-hSmo membranes, 3 hours at 37° C.): inactive | Inhibition of the binding of compound 3H-(7d), in words ([2]; HEK-hSmo membranes): not active | IC50 ([2]; HEK-hSmo membranes, agonists (FIG. 5), read-out: IC50, binding of compound 3H-(7d), unit inferred): > 1 µM | Ki ± SEM, binding of compound 3H-(7d) [2, 10]: inactive

CNC1CCC(N(Cc2cccc(-c3ccncc3)c2)C(=O)c2sc3ccccc3c2Cl)CC1 (centres unmarked) [SAG]
IC50 [2, 9]: 0.005 µM and 0.0052 µM | Ki [2, 10]: 0.0024 ± 0.0003 µM

cyclopamine
IC50 [3]: 0.103 µM | Concentration cytotoxic for the cells [6]: above 10 μM | IC50 [1, 11]: 0.62 ± 0.03 µM | IC50 [1, 12]: 0.62 ± 0.03 µM
